# In patent US20250109127A1, “METHODS OF USE OF PHENOXYPROPYLAMINE COMPOUNDS TO TREAT DEPRESSION” (Minerva Neurosciences, Inc., priority 2013, published 2025):
# Where “and” joins values, the source holds several entries; their conditions need not be identical. Equal values may be shown once. Where a name gives a salt, the structure may show the parent alone.
# System: HVA release in the rat prefrontal cortex
# Experiment: Microdialysis: HVA release in prefrontal cortex after I.P. administration
# Type: in vivo
# Conditions: for HVA (% of respective basal), individual animal: 0.1 mg/kg I.P., c2-c9 = R#13,14,20,19,25,26,31,32; for HVA (% of respective basal), individual animal / HVA release, individual animals: hydrochloride; for HVA release, MEAN / HVA release, individual animals: 0.3 mg/kg I.P.; for HVA release, MEAN: n = 8; for HVA release, individual animals: one column per animal R#11,12,18,23,29,30,17,24
# Protocol: The aim of the study was to evaluate, using microdialysis, the effects of an intraperitoneal (I.P.) administration in rats of three different doses of SON-117 on dopamine and its metabolites, serotonin and its metabolite (5-HIAA), and norepinephrine levels in prefrontal cortex.
# Thirty-two adult male Wistar rats were used for the whole study (4 groups of eight animals planned for the study, Table 1).
# Surgery was performed on rats weighing about 300 g at the beginning of the experiments. Rats were anaesthetized with Ketamine (50 mg/kg) & Xylazine (15 mg/kg) by intramuscular administration. The animals were placed in a stereotaxic apparatus in the flat-skull position at a constant setting of −3.3 mm between ear bars and the incisor bar. The animals were treated with a local anesthesic (xylocaine 1%, Astra Zeneca) and an analgesic (Temgesic, from Schering Plough, 0.05 mg/kg, s.c.). A rostrocaudal midline incision was made with a lancet to expose the dorsal skull surface. The “stereotaxic zero” was defined by the Bregma in accordance with Paxinos and Watson's atlas (1986). A hole was drilled in the skull with a drill and the meninges were pierced with a sterile needle to implant a CMA12 guide cannula which later received the dialysis probe.
# Coordinates used for implanting guide cannula in prefrontal cortex from Bregma were anteroposterior 3.7 mm, mediolateral 0.8 mm, and dorsoventral −2 mm (top of the probe was at −5 mm). The guide cannula was fixed to the skull with two stainless steel screws (1.88 mm outside diameter) anchored. An application of dental cement was added. A plastic collar allowed each animal to be tethered to a Swivel assembly of the CMA 120 awake animal system. Following surgery, rats were kept in individual cages and allowed to recover for a minimum of 3-5 days before the experimentation. The rats were handled and put in plastic bowl for 10 min at least every day to habituate the animals to their new environment for the dialysis. An I.P. administration with saline was also performed every day.
# Dialysis probes (CMA12/3 mm, membrane, 20 kD cut-off, Carnegie Medicine, Stockholm, Sweden), were carefully washed before inserting into the guide cannula. The wash was performed with the artificial cerebrospinal fluid (aCSF) medium (NaCl 147 mM, KCl 2.7 mM, CaCl2 1.2 mM, MgCl2 0.85 mM) at room temperature. The dialysis system was then equilibrated at 20° C. at a perfusion rate of 1 μl/min with a Carnegie pump (CMA100). All catheters (FEP tubing, internal volume of 1.2 μl/10 cm, and tubing adaptors) used for microdialysis were treated in the same conditions.
# The probes duly prepared were inserted into the guide cannula and the CMA120 Swivel assembly secured to the animal using a plastic collar. Flow through the dialysis probe with aCSF was maintained at a rate of 1 μl/min during the whole experimentation. The first four fractions (corresponding to 2 hours) were discarded to avoid the effects of parenchymal disturbance and to ensure that an approximate steady-state level was reached. Fractions were then collected over a period of 8.5 h during which time the animals remained quiet. The dialysates were automatically collected with an autosampler (microfraction collector CMA 140, Carnegie Medicin) and stored at −80° C. until analysis. […] Perfusion was then maintained for 7 hours with aCSF. The dialysates (30 μl) were collected into 300 μl vials, transferred into dry ice and then kept frozen (−80° C.) until analysis. Frozen samples were shipped to a partner for analysis. At the end of the microdialysis study, a PBS with colored ink was perfused through the probe in order to visualize the dialyzed area.
# Catecholamine assay: Concentrations of dopamine, DOPAC, HVA, 5-HIAA, 5-HT, and norepinephrin were determined for each sample by HPLC coupled with electrochemical detection.
smiles,measurement,setting,value
"Cc1nnc(-c2cc3c(OC[C@@H](O)CN4CCC(c5ccc(Cl)c(Cl)c5)CC4)cccc3o2)o1 [SON-117, (S)-1-(4-(3,4-dichlorophenyl)piperidino)-3-(2-(5-methyl-1,3,4-oxadiazol-2-yl)benzo(b)furan-4-yloxy)-2-propanol hydrochloride]","HVA (% of respective basal), individual animal",T30-T1 h,116.26 % of respective basal and 107.34 % of respective basal and 108.66 % of respective basal and 130.85 % of respective basal and 120.36 % of respective basal and 141.88 % of respective basal and 123.41 % of respective basal and 95.76 % of respective basal
same,"HVA (% of respective basal), individual animal",T1 h 30-T2 h,97.75 % of respective basal and 109.52 % of respective basal and 89.93 % of respective basal and 170.371 % of respective basal and 123.81 % of respective basal and 97.71 % of respective basal and 126.7 % of respective basal and 80.99 % of respective basal
same,"HVA (% of respective basal), individual animal",T1 h-T1 h 30,124.25 % of respective basal and 162.58 % of respective basal and 98.567 % of respective basal and 241.96 % of respective basal and 130.93 % of respective basal and 153.68 % of respective basal and 123.58 % of respective basal and 80.09 % of respective basal
same,"HVA (% of respective basal), individual animal",T2 h 30-T3 h,88.46 % of respective basal and 123.19 % of respective basal and 75.76 % of respective basal and 151.82 % of respective basal and 149.48 % of respective basal and 157.13 % of respective basal and 121.53 % of respective basal and 21.68 % of respective basal
same,"HVA (% of respective basal), individual animal",T2 h-T2 h 30,83.46 % of respective basal and 121.21 % of respective basal and 80.97 % of respective basal and 145.084 % of respective basal and 132.39 % of respective basal and 106.30 % of respective basal and 139.18 % of respective basal and 53.45 % of respective basal
same,"HVA (% of respective basal), individual animal",T3 h 30-T4 h,94.31 % of respective basal and 116.57 % of respective basal and 55.89 % of respective basal and 152.08 % of respective basal and 193.52 % of respective basal and 154.95 % of respective basal and 123.32 % of respective basal and 16.37 % of respective basal
same,"HVA (% of respective basal), individual animal",T3 h-T3 h 30,135.42 % of respective basal and 99.88 % of respective basal and 73.47 % of respective basal and 137.35 % of respective basal and 137.07 % of respective basal and 115.93 % of respective basal and 133.06 % of respective basal and 20.75 % of respective basal
same,"HVA (% of respective basal), individual animal",T4 h 30-T5 h,128.74 % of respective basal and 102.18 % of respective basal and 100.29 % of respective basal and 40.6 % of respective basal and 130.76 % of respective basal and 136.09 % of respective basal and 114.46 % of respective basal and 68.31 % of respective basal
same,"HVA (% of respective basal), individual animal",T4 h-T4 h 30,149.58 % of respective basal and 107.72 % of respective basal and 55.17 % of respective basal and 173.59 % of respective basal and 155.95 % of respective basal and 149.97 % of respective basal and 148.42 % of respective basal and 76.98 % of respective basal
same,"HVA (% of respective basal), individual animal",T5 h 30-T6 h,146.23 % of respective basal and 127.63 % of respective basal and 35.72 % of respective basal and 136.22 % of respective basal and 116.99 % of respective basal and 123.45 % of respective basal and 128.36 % of respective basal and 65.12 % of respective basal
same,"HVA (% of respective basal), individual animal",T5 h-T5 h 30,143.02 % of respective basal and 149.35 % of respective basal and 36.52 % of respective basal and 131.08 % of respective basal and 120.77 % of respective basal and 117.84 % of respective basal and 126.17 % of respective basal and 77.12 % of respective basal
same,"HVA (% of respective basal), individual animal",T6 h 30-T7 h,155.64 % of respective basal and 142.57 % of respective basal and 54.30 % of respective basal and 131.80 % of respective basal
same,"HVA (% of respective basal), individual animal",T6 h-T6 h 30,149.66 % of respective basal and 147.03 % of respective basal and 11.88 % of respective basal and 133.32 % of respective basal and 118.76 % of respective basal and 122.29 % of respective basal and 121.40 % of respective basal and 66.42 % of respective basal
same,"HVA release, MEAN",T0-T30 min,107.04 % of respective basal
same,"HVA release, MEAN",T30-T1 h,94.37 % of respective basal
same,"HVA release, individual animals",T30-T1 h,76.21 % of respective basal and 55.15 % of respective basal and 89.64 % of respective basal and 100.95 % of respective basal and 83.39 % of respective basal and 95.38 % of respective basal and 149.36 % of respective basal and 104.86 % of respective basal
same,"HVA release, MEAN",T1 h 30-T2 h,85.59 % of respective basal
same,"HVA release, individual animals",T1 h 30-T2 h,89.77 % of respective basal and 59.14 % of respective basal and 96.89 % of respective basal and 103.49 % of respective basal and 82.49 % of respective basal and 54.42 % of respective basal and 95.23 % of respective basal and 103.32 % of respective basal
same,"HVA release, MEAN",T1 h-T1 h 30,120.85 % of respective basal
same,"HVA release, individual animals",T1 h-T1 h 30,90.43 % of respective basal and 68.90 % of respective basal and 103.82 % of respective basal and 116.53 % of respective basal and 80.54 % of respective basal and 85.72 % of respective basal and 305.74 % of respective basal and 115.15 % of respective basal
same,"HVA release, MEAN",T2 h 30-T3 h,107.95 % of respective basal
same,"HVA release, individual animals",T2 h 30-T3 h,72.76 % of respective basal and 59.51 % of respective basal and 90.20 % of respective basal and 316.58 % of respective basal and 70.98 % of respective basal and 94.71 % of respective basal and 54.48 % of respective basal and 104.42 % of respective basal
same,"HVA release, MEAN",T2 h-T2 h 30,85.33 % of respective basal
same,"HVA release, individual animals",T2 h-T2 h 30,68.39 % of respective basal and 70.39 % of respective basal and 95.76 % of respective basal and 101.52 % of respective basal and 72.96 % of respective basal and 85.03 % of respective basal and 97.42 % of respective basal and 91.18 % of respective basal
